These results are taken from ChEMBL document CHEMBL4715862, “Anti-HIV Tigliane Diterpenoids from Wikstroemia scytophylla” (J Nat Prod, 2020).

Series [1] relates to Human immunodeficiency virus 1. The experiment in a line: Antiviral activity against HIV-1 NL4-3 infected in human MT4 cells assessed as reduction in p24 gag protein expression incubated for 48 hrs by ELISA. The format is functional, organism-based. As to conditions: Human immunodeficiency virus 1, NL4-3, MT4, 48 h.
Series [2] is described as follows: Cytotoxicity against human MT4 cells assessed as reduction in cell viability after 48 hrs by CellTiter-Glo assay. The series is classed as cell-based. Background: Cellular ATP, detected with luciferase, serves as a proxy for viable cell number.
The nature of series [3]: Selectivity ratio of CC50 for cytotoxicity against human MT4 cells to IC50 for antiviral activity against HIV-1 NL4-3 infected in human MT4 cells. The series is classed as toxicity, cell-based. As to conditions: read-out: Ratio CC50/IC50.

The IC50 is the point on the concentration scale where inhibition reaches its midpoint. A word on the CC50: it is the concentration that lowers cell viability or growth by half.

On to `CCCCCCCC(=O)O[C@@]12[C@H](OC(=O)c3ccccc3)[C@@H](C)[C@]3(O)[C@@H]4C=C(C)C(=O)[C@@]4(O)[C@H](O)C(CO)=C[C@H]3[C@@H]1C2(C)C`, for which the concentration for half-maximal inhibition (IC50) in series [1] was found to be 12.8 nM. Moreover, in series [2], the 50% cytotoxic concentration (CC50) at 48 h is over 164 nM.

Take `CCCCCCCC(=O)O[C@@]12[C@H](OC(=O)c3ccccc3)[C@@H](C)[C@@]3(O)[C@H]([C@@H]1C2(C)C)[C@@H](OO)C(CO)=C[C@]1(O)C(=O)C(C)=C[C@@H]31`: the selectivity ratio in series [3] is under 5.

Take `CCCCCCCC(=O)O[C@@]12[C@H](OC(=O)c3ccccc3)[C@@H](C)[C@@]3(O)C(=C[C@](O)(CO)C[C@]4(O)C(=O)C(C)=C[C@@H]34)[C@@H]1C2(C)C`: in series [1], the IC50 is over 164 nM. Also, the cytotoxic concentration (CC50) at 48 h in series [2] was over 164 nM.

Consider `CCCCCCCC(=O)O[C@@]12[C@H](OC(=O)CCCCC)[C@@H](C)[C@@]3(O)[C@@H](C(=O)C(CO)=C[C@]4(O)C(=O)C(C)=C[C@@H]34)[C@@H]1C2(C)C`, for which the IC50 in series [1] was over 164 nM. For the same compound, the half-maximal cytotoxic concentration (CC50) at 48 h in series [2] was over 164 nM.

Take `CCCCCCCC(=O)O[C@@]12[C@H](OC(=O)c3ccccc3)[C@@H](C)[C@@]3(O)[C@@H](C(=O)C(CO)=C[C@]4(O)C(=O)C(C)=C[C@@H]34)[C@@H]1C2(C)C`: in series [1], the IC50 was 3.8 nM. Besides, the CC50 at 48 h in series [2] is over 164 nM.

With `CCCCCCCC(=O)O[C@@]12[C@H](OC(=O)c3ccccc3)[C@@H](C)[C@@]3(O)[C@H]([C@@H]1C2(C)C)[C@@H](O)C(CO)=C[C@]1(O)C(=O)C(C)=C[C@@H]31`, the IC50 in series [1] was over 164 nM. The 50% cytotoxic concentration (CC50) at 48 h in series [2] is over 164 nM.

`C=C(C)[C@]12C[C@@H](COC(=O)c3ccccc3)[C@@]34O[C@]5(O[C@@H]1[C@@H]3[C@@H]1O[C@]1(CO)[C@@H](O)[C@@]1(O)[C@H]4[C@H]([C@H](C)[C@@H]1OC(=O)c1ccccc1)[C@H](C)CCCCCC[C@H]5O)O2`: the half-inhibitory concentration (IC50) in series [1] was found to be 0.07 nM. Moreover, in series [2], the CC50 at 48 h is over 5 nM.
